A word on the IC50: it is the concentration needed to halve the response being measured.

IC50 data for 18 molecules are collected here from patent publication US7501513B2, “Immunosuppressive effects of pteridine derivatives” (4 AZA Bioscience NV, priority 2003, dated 2009).

In the first assay the test system is Peripheral blood mononuclear cells. The assay can be described thus: Mixed lymphocyte reaction (MLR) test. In kind it is cell-based, human. Particulars: Homo sapiens, PBMC; Table 3; 50% suppression of the MLR. On the procedure: Pteridine derivatives were first dissolved (10 mM) in dimethylsulfoxide (hereinafter referred as DMSO) and further diluted in culture medium before use for the following in vitro experiments. The commercially available culture medium consisted of RPMI-1640+10% foetal calf serum (FCS). Some pteridine derivatives described the previous examples were tested in the following lymphocyte activation tests:
(§1) Peripheral blood mononuclear cells (hereinafter referred as PBMC) were isolated from heparinized peripheral blood by density gradient centrifugation over Lymphoprep (Nycomed, Maorstua, Norway). Allogeneic PBMC or Eppstein-Barr Virus-transformed human B cells [commercially available under the trade name RPMI1788 (ATCC name CCL156)] which strongly express B7-1 and B7-2 antigens were used as stimulator cells after irradiation with 30 Gy. MLR was performed in triplicate wells. After 5 days incubation at 37° C., 1 μCi [^3H]-thymidine was added to each cup. After a further 16 hours incubation, cells were harvested and counted in a β-counter. Inhibition of proliferation by a compound (drug) described in some of the previous examples was counted using the formula:
[formula] wherein cpm is the thymidine count per minute. The MLR assay is regarded by those skilled in the art as an in vitro analogue of the transplant rejection since it is based on the recognition of allogeneic major histocompatibility antigens on the stimulator leukocytes, by responding lymphocytes. Assays for CD3 and CD 28
Pteridine derivatives were first dissolved (10 mM) in dimethylsulfoxide (hereinafter referred as DMSO) and further diluted in culture medium before use for the following in vitro experiments. The commercially available culture medium consisted of RPMI-1640+10% foetal calf serum (FCS). Some pteridine derivatives described in the previous examples (as indicated in table 3 below) were tested in the following mixed lymphocyte reaction (MLR) assay.
as §1, with “CCL156)]which” for “CCL156)] which”
[formula] wherein cpm is the thymidine count per minute. The MLR assay is regarded by those skilled in the art as an in vitro analogue of the transplant rejection since it is based on the recognition of allogeneic major histocompatibility antigens on the stimulator leukocytes, by responding lymphocytes.
Take `Nc1nc(N2CCOCC2)c2nc(-c3ccc(NC(=O)C4CCCCC4)cc3)cnc2n1` [Example 80, 2-amino-4-morpholino-6-(4-cyclohexanoylaminophenyl)pteridine]: the IC50 turned out to be 4.1 µM.

`Nc1nc(N2CCOCC2)c2nc(-c3cccc(NC(=O)C4CCCCC4)c3)cnc2n1` [Example 92, 2-amino-4-morpholino-6-(3-cyclohexanoylaminophenyl)pteridine] registered an IC50 of 2.9 µM. The IC50 values of the last two molecules are within 1.5-fold of each other.

In turn, `Nc1cccc(-c2cnc3nc(N)nc(N4CCOCC4)c3n2)c1` [Example 75, 2-amino-4-morpholino-6-(3-aminophenyl)pteridine] gave an IC50 of 4.1 µM. This IC50 and that of the molecule before are within 1.5-fold of each other.

`Nc1nc(N2CCOCC2)c2nc(-c3ccc(NC(=O)COc4ccccc4)cc3)cnc2n1` [Example 77, 2-amino-4-morpholino-6-(4-phenoxyacetylaminophenyl)pteridine] registered an IC50 of 2.5 µM.

`Nc1nc(N2CCOCC2)c2nc(-c3cccc(NC(=O)COCc4ccccc4)c3)cnc2n1` [Example 96, 2-amino-4-morpholino-6-(3-benzyloxyacetylaminophenyl)pteridine]: half-maximal inhibition (IC50) required 4.1 µM.

The molecule `Nc1nc(N2CCOCC2)c2nc(-c3cccc(NC(=O)COc4ccccc4)c3)cnc2n1` [Example 90, 2-amino-4-morpholino-6-(3-phenoxyacetylaminophenyl)pteridine] returned an IC50 of 10 µM.

In the case of `Nc1nc(N2CCOCC2)c2nc(-c3cccc(NC(=O)c4ccccc4)c3)cnc2n1` [Example 88, 2-amino-4-morpholino-6-(3-benzoylaminophenyl)pteridine], the IC50 worked out at 4.9 µM.

Regarding `Nc1nc(N2CCOCC2)c2nc(-c3ccc(NC(=O)c4ccncc4)cc3)cnc2n1` [Example 83, 2-amino-4-morpholino-6-(4-isonicotinoylaminophenyl)pteridine], inhibition was half-maximal at 3.9 µM (IC50).

In turn, `COCCOc1ccc(-c2cnc3nc(N)nc(N4CCOCC4)c3n2)cc1` [Example 110, 2-amino-4-morpholino-6-(4-(2-methoxyethoxy)-phenyl)pteridine] registered an IC50 of 5.4 µM.

As to `CCC(=O)Nc1ccc(-c2cnc3nc(N)nc(N4CCOCC4)c3n2)cc1` [Example 78, 2-amino-4-morpholino-6-(4-propionylaminophenyl)pteridine], the IC50 is 6.5 µM. This IC50 and that of the molecule before are within 1.5-fold of each other.

For `Nc1nc(N2CCOCC2)c2nc(-c3cccc(NS(=O)(=O)c4ccccc4)c3)cnc2n1` [Example 89, 2-amino-4-morpholino-6-(3-benzensulfonylaminophenyl)pteridine], the IC50 turned out to be 0.8 µM.

For the molecule `Nc1nc(N2CCOCC2)c2nc(-c3cccc(NC(=O)c4ccncc4)c3)cnc2n1` [Example 91, 2-amino-4-morpholino-6-(3-isonicotinoylaminophenyl)pteridine], 10 µM corresponded to half-maximal inhibition (IC50).

For `Nc1nc(N2CCOCC2)c2nc(-c3ccc(NC(=O)c4ccccc4)cc3)cnc2n1` [Example 76, 2-amino-4-morpholino-6-(4-benzoylaminophenyl)pteridine], the midpoint of inhibition, the IC50, lay at 2.1 µM. This IC50 is about 4.8-fold lower than that of the molecule before.

Staying with this assay, now noted: Table 3; 50% suppression of the MLR.
`CC(=O)Nc1cccc(-c2cnc3nc(N)nc(N4CCOCC4)c3n2)c1` [Example 73, 2-amino-4-morpholino-6-(3-acetanilide)pteridine] gave an IC50 of 6.4 µM.

Molecule `Nc1nc(N2CCOCC2)c2nc(-c3ccc(NC(=O)c4cccc5ccccc45)cc3)cnc2n1` [Example 84, 2-amino-4-morpholino-6-(4-naphtoylaminophenyl)pteridine] showed an IC50 of 4 µM.

As to `Nc1nc(N2CCOCC2)c2nc(-c3ccc(NC(=O)c4ccco4)cc3)cnc2n1` [Example 79, 2-amino-4-morpholino-6-(4-furoylaminophenyl)pteridine], half-maximal inhibition (IC50) required 7.8 µM.

`COc1ccc(-c2cnc3nc(NCc4cccs4)nc(NCc4cccs4)c3n2)cc1OC` [Example 68, 2,4-di-(thienyl-2-methylamino)-6-(3,4-dimethoxy-Phenyl) pteridine] showed an IC50 of 0.8 µM.

`CC(C)(C)OC(=O)N[C@H](Cc1ccccc1)C(=O)Nc1cccc(-c2cnc3nc(N)nc(N4CCOCC4)c3n2)c1` [Example 99, 2-amino-4-morpholino-6-[3-Boc-(D)-phenylalanine-aminophenyl]pteridine] yielded an IC50 of 4.1 µM.
